Reference: patent publication US11959086B2, “Dual transit peptides for targeting polypeptides” (BASF AGRO B.V., priority 2016, dated 2024)

Columns and labels:
[1] = tested on: transgenic Arabidopsis thaliana, transgene SEQ ID NO 120; assay: Herbicide injury evaluation of Arabidopsis plants, greenhouse; format: in vivo; conditions: Table 4, scale 0-100
[2] = tested on: Arabidopsis plants, construct hemF_tpsAMATU_PPO2 (SEQ ID NO 116); assay: Tolerance of transgenic T1 Arabidopsis plants to herbicides, greenhouse (Tolerance Factor); format: in vivo, Arabidopsis thaliana
[3] = tested on: Arabidopsis plants, construct RHOMA_PPO_wt_tpAMATU_PPO2 (SEQ ID NO 127); assay: as above; format: in vivo, Arabidopsis thaliana
[4] = tested on: transgenic Arabidopsis thaliana, transgene SEQ ID NO 119; assay: Herbicide injury evaluation of Arabidopsis plants, greenhouse; format: in vivo; conditions: Table 3, scale 0-100
[5] = tested on: transgenic Arabidopsis thaliana, transgene SEQ ID NO 118; assay: as above; format: in vivo; conditions: scale 0-100
[6] = tested on: Arabidopsis plants, construct OPITE_PPO_wt_tpFNR (SEQ ID NO 121); assay: Tolerance of transgenic T1 Arabidopsis plants to herbicides, greenhouse (Tolerance Factor); format: in vivo, Arabidopsis thaliana
[7] = tested on: Arabidopsis plants, construct hemG_tpFNR (SEQ ID NO 117); assay: as above; format: in vivo, Arabidopsis thaliana
[8] = tested on: Arabidopsis plants, construct RHOMA_PPO_F420V_tpFNR (SEQ ID NO 124); assay: as above; format: in vivo, Arabidopsis thaliana
[9] = tested on: Arabidopsis plants, construct hemF_tplAMATU_PPO2 (SEQ ID NO 115); assay: as above; format: in vivo, Arabidopsis thaliana
[10] = tested on: transgenic Arabidopsis thaliana, transgene SEQ ID NO 128; assay: Herbicide injury evaluation of Arabidopsis plants, greenhouse; format: in vivo; conditions: Table 3, scale 0-100
[11] = tested on: Arabidopsis plants, construct hemF_tpFNR (SEQ ID NO 114); assay: Tolerance of transgenic T1 Arabidopsis plants to herbicides, greenhouse (Tolerance Factor); format: in vivo, Arabidopsis thaliana
[12] = tested on: transgenic Arabidopsis thaliana, transgene SEQ ID NO 117; assay: Herbicide injury evaluation of Arabidopsis plants, greenhouse; format: in vivo; conditions: Table 3, scale 0-100
[13] = tested on: transgenic Arabidopsis thaliana, transgene SEQ ID NO 121; assay: as above; format: in vivo; conditions: Table 3, scale 0-100
[14] = tested on: Arabidopsis plants, construct hemG_tpsAMATU_PPO2 (SEQ ID NO 119); assay: Tolerance of transgenic T1 Arabidopsis plants to herbicides, greenhouse (Tolerance Factor); format: in vivo, Arabidopsis thaliana
[15] = tested on: empty vector-transformed leaf discs; assay: PSII yield inhibition in tobacco leaf discs (chlorophyll fluorescence, imaging PAM); format: cell-based; conditions: Nicotiana benthamiana, 48 h, read-out: IC50 of PSII yield inhibition
[16] = tested on: Wildtype/non-transgenic Arabidopsis thaliana; assay: Herbicide injury evaluation of Arabidopsis plants, greenhouse; format: in vivo; conditions: scale 0-100
[17] = tested on: Arabidopsis plants, construct RHOMA_PPO_wt_tpFNR (SEQ ID NO 123); assay: Tolerance of transgenic T1 Arabidopsis plants to herbicides, greenhouse (Tolerance Factor); format: in vivo, Arabidopsis thaliana
[18] = tested on: Arabidopsis plants, construct CHLSP_PPO_wt_tpFNR (SEQ ID NO 128); assay: as above; format: in vivo, Arabidopsis thaliana
[19] = tested on: Arabidopsis plants, construct hemG_tplAMATU_PPO2 (SEQ ID NO 118); assay: as above; format: in vivo, Arabidopsis thaliana

## CC(C)N(C)S(=O)(=O)NC(=O)c1cc(-n2c(=O)cc(C(F)(F)F)n(C)c2=O)c(F)cc1Cl [Saflufenacil, saflufenacil]
[1]; SEQ ID NO 120 J, 50 g ai/ha + 1% MSO
  Herbicide injury evaluation 14 days after herbicide treatment: 80
[1]; SEQ ID NO 120 J, 150 g ai/ha + 1% MSO
  Herbicide injury evaluation 14 days after herbicide treatment: 83
[1]; SEQ ID NO 120 J, 300 g ai/ha + 1% MSO
  Herbicide injury evaluation 14 days after herbicide treatment: 85
[1]; SEQ ID NO 120 M, 50 g ai/ha + 1% MSO
  Herbicide injury evaluation 14 days after herbicide treatment: 95
[1]; SEQ ID NO 120 M, 150 g ai/ha + 1% MSO
  Herbicide injury evaluation 14 days after herbicide treatment: 93
[1]; SEQ ID NO 120 M, 300 g ai/ha + 1% MSO
  Herbicide injury evaluation 14 days after herbicide treatment: 88
[2]
  Tolerance Factor: 1
[3]
  Tolerance Factor: 1
[4]; SEQ ID NO 119 A, 50 g ai/ha + 1% MSO
  Herbicide injury evaluation 14 days after herbicide treatment: 100
[4]; SEQ ID NO 119 A, 150 g ai/ha + 1% MSO
  Herbicide injury evaluation 14 days after herbicide treatment: 100
[4]; SEQ ID NO 119 A, 300 g ai/ha + 1% MSO
  Herbicide injury evaluation 14 days after herbicide treatment: 100
[4]; SEQ ID NO 119 B, 50 g ai/ha + 1% MSO
  Herbicide injury evaluation 14 days after herbicide treatment: 100
[4]; SEQ ID NO 119 B, 150 g ai/ha + 1% MSO
  Herbicide injury evaluation 14 days after herbicide treatment: 100
[4]; SEQ ID NO 119 B, 300 g ai/ha + 1% MSO
  Herbicide injury evaluation 14 days after herbicide treatment: 100
[5]; Table 3, SEQ ID NO 118 Q, 50 g ai/ha + 1% MSO
  Herbicide injury evaluation 14 days after herbicide treatment: 55
[5]; Table 3, SEQ ID NO 118 Q, 150 g ai/ha + 1% MSO
  Herbicide injury evaluation 14 days after herbicide treatment: 58
[5]; Table 3, SEQ ID NO 118 Q, 300 g ai/ha + 1% MSO
  Herbicide injury evaluation 14 days after herbicide treatment: 68
[5]; Table 3, SEQ ID NO 118 R, 50 g ai/ha + 1% MSO
  Herbicide injury evaluation 14 days after herbicide treatment: 5
[5]; Table 3, SEQ ID NO 118 R, 150 g ai/ha + 1% MSO
  Herbicide injury evaluation 14 days after herbicide treatment: 65
[5]; Table 3, SEQ ID NO 118 R, 300 g ai/ha + 1% MSO
  Herbicide injury evaluation 14 days after herbicide treatment: 48
[5]; Table 4, SEQ ID NO 118 Q, 50 g ai/ha + 1% MSO
  Herbicide injury evaluation 14 days after herbicide treatment: 63
[5]; Table 4, SEQ ID NO 118 Q, 150 g ai/ha + 1% MSO
  Herbicide injury evaluation 14 days after herbicide treatment: 63
[5]; Table 4, SEQ ID NO 118 Q, 300 g ai/ha + 1% MSO
  Herbicide injury evaluation 14 days after herbicide treatment: 65
[5]; Table 4, SEQ ID NO 118 R, 50 g ai/ha + 1% MSO
  Herbicide injury evaluation 14 days after herbicide treatment: 38
[5]; Table 4, SEQ ID NO 118 R, 150 g ai/ha + 1% MSO
  Herbicide injury evaluation 14 days after herbicide treatment: 45
[5]; Table 4, SEQ ID NO 118 R, 300 g ai/ha + 1% MSO
  Herbicide injury evaluation 14 days after herbicide treatment: 60
[6]
  Tolerance Factor: 14
[7]
  Tolerance Factor: 332
[8]
  Tolerance Factor: 1
[9]
  Tolerance Factor: 1
[10]; SEQ ID NO 128 D, 50 g ai/ha + 1% MSO
  Herbicide injury evaluation 14 days after herbicide treatment: 93
[10]; SEQ ID NO 128 D, 150 g ai/ha + 1% MSO
  Herbicide injury evaluation 14 days after herbicide treatment: 97
[10]; SEQ ID NO 128 D, 300 g ai/ha + 1% MSO
  Herbicide injury evaluation 14 days after herbicide treatment: 97
[10]; SEQ ID NO 128 E, 50 g ai/ha + 1% MSO
  Herbicide injury evaluation 14 days after herbicide treatment: 97
[10]; SEQ ID NO 128 E, 150 g ai/ha + 1% MSO
  Herbicide injury evaluation 14 days after herbicide treatment: 97
[10]; SEQ ID NO 128 E, 300 g ai/ha + 1% MSO
  Herbicide injury evaluation 14 days after herbicide treatment: 97
[11]
  Tolerance Factor: 1
[12]; SEQ ID NO 117 C, 50 g ai/ha + 1% MSO
  Herbicide injury evaluation 14 days after herbicide treatment: 100
[12]; SEQ ID NO 117 C, 150 g ai/ha + 1% MSO
  Herbicide injury evaluation 14 days after herbicide treatment: 98
[12]; SEQ ID NO 117 C, 300 g ai/ha + 1% MSO
  Herbicide injury evaluation 14 days after herbicide treatment: 97
[12]; SEQ ID NO 117 I, 50 g ai/ha + 1% MSO
  Herbicide injury evaluation 14 days after herbicide treatment: 94
[12]; SEQ ID NO 117 I, 150 g ai/ha + 1% MSO
  Herbicide injury evaluation 14 days after herbicide treatment: 99
[12]; SEQ ID NO 117 I, 300 g ai/ha + 1% MSO
  Herbicide injury evaluation 14 days after herbicide treatment: 95
[13]; SEQ ID NO 121 G, 50 g ai/ha + 1% MSO
  Herbicide injury evaluation 14 days after herbicide treatment: 100
[13]; SEQ ID NO 121 G, 150 g ai/ha + 1% MSO
  Herbicide injury evaluation 14 days after herbicide treatment: 100
[13]; SEQ ID NO 121 G, 300 g ai/ha + 1% MSO
  Herbicide injury evaluation 14 days after herbicide treatment: 100
[13]; SEQ ID NO 121 H, 50 g ai/ha + 1% MSO
  Herbicide injury evaluation 14 days after herbicide treatment: 100
[13]; SEQ ID NO 121 H, 150 g ai/ha + 1% MSO
  Herbicide injury evaluation 14 days after herbicide treatment: 100
[13]; SEQ ID NO 121 H, 300 g ai/ha + 1% MSO
  Herbicide injury evaluation 14 days after herbicide treatment: 100
[14]
  Tolerance Factor: 1
[15]
  IC50: 0.11 µM
[16]; Table 3, 50 g ai/ha + 1% MSO
  Herbicide injury evaluation 14 days after herbicide treatment: 100
[16]; Table 3, 150 g ai/ha + 1% MSO
  Herbicide injury evaluation 14 days after herbicide treatment: 100
[16]; Table 3, 300 g ai/ha + 1% MSO
  Herbicide injury evaluation 14 days after herbicide treatment: 100
[16]; Table 4, 50 g ai/ha + 1% MSO
  Herbicide injury evaluation 14 days after herbicide treatment: 100
[16]; Table 4, 150 g ai/ha + 1% MSO
  Herbicide injury evaluation 14 days after herbicide treatment: 100
[16]; Table 4, 300 g ai/ha + 1% MSO
  Herbicide injury evaluation 14 days after herbicide treatment: 100
[17]
  Tolerance Factor: 1
[18]
  Tolerance Factor: 640
[19]
  Tolerance Factor: 2200
